According to patent publication US20180116999A1, “METHODS OF TREATING FIBROTIC DISEASES USING TETRAHYDROCANNABINOL-11-OIC ACIDS” (Corbus Pharmaceuticals, Inc., priority 2011, published 2018):
Entries after “also recorded” stand apart in the source; their conditions may differ. Read-outs that look alike come from different tables or passages of the source.

What was measured:
SSc fibroblasts = assay: Collagen (PIP) concentration in supernatant of SSc fibroblasts; format: cell-based, human; settings: for reversal of AjA inhibitory effect on PIP/collagen production by PPAR-γ antagonist: antagonist 10 μM, pre-incubation 15 minutes before AjA
[1] = test system: SSc and healthy fibroblasts; assay: Cell viability (MTT assay); format: cell-based, human; settings: AjA in concentrations up to 10 pM (so in the source), 24 hours, data not shown
Experimental: SSc and healthy fibroblasts were plated at a density of 100000 cells/well in 24 well plate and treated with AjA at concentrations of 0.1, 1, 5 and 10 μM for 24 hours in presence or absence of GW9662 at concentrations of 1 and 10 μM. Cell metabolic activity was measured by 3-(4,5-dimethylthiazol-2-yl)-2,5-diphenyltetrazolium bromide (MTT) assay. After removal of 100 μl of the growth medium, MTT was added at a final concentration of 3 mg/ml, and the cells were incubated at 37° C. for an additional 4 hours. Formazan crystals were dissolved in DMSO and optical density was measured at 570 nm using a spectrophotometer.

humans = settings: doses up to 80 mg/day, cited from earlier work
[2] = test system: bleomycin-induced lung fibrosis; assay: Bleomycin lung fibrosis, Day 21 histology of lung; format: in vivo
PPAR-γ = PPAR-γ expression by Western blot in SSc fibroblasts; format: cell-based, human; settings: AjA 5 microM and 10 microM
Experimental: (§1) SSc and healthy dermal fibroblasts were cultured in DMEM containing 2.5% of fetal calf serum (FCS) for 24 hours before the experiments. Dermal fibroblasts were incubated with AjA (JB Therapeutics, Newton, Mass., USA), dissolved in dimethyl sulfoxide at 0.1, 1, 5 and 10 microM concentrations for 24 hours. Experiments with the PPAR-γ irreversible antagonist GW9662 (Tocris Bioscience, Bristol, UK), 1 and 10 microM, were performed by incubating dermal fibroblasts for 15 minutes before AjA treatment.
After rinsing twice with PBS, cells were lysed with Ripa buffer (Santa Cruz Biotechnology, Santa Cruz, Calif., USA). Subsequently, cell lysates were incubated on ice for 30 minutes and centrifuged at 14,000 g for 20 minutes. Protein concentrations were measured using the Bradford assay (Bio-Rad, Reinach, Switzerland). […] After incubation with horseradish peroxidase (HRP)-conjugated donkey anti-goat antibodies Santa Cruz Biotechnology) at a dilution of 1:10000 for 45 minutes, signals were detected with ECL Western Blotting Detection Reagents (Amersham Bioscience, Freiburg, Germany) and exposure to x-ray film (SuperRX; Fuji, Dusseldorf, Germany). For confirmation of equal loading of proteins, the amount of alpha-tubulin was determined using mouse anti-human a-tubulin antibodies (dilution 1:1,000; Sigma) and HRP-conjugated rabbit anti-mouse antibodies (dilution 1:5000; Santa Cruz). […]

CB2 receptor = CB2 receptor (Homo sapiens, UniProt P34972); settings: cited from earlier work
[3] = target: T1, peroxisome proliferated-activated receptor-γ (PPAR-γ) (Homo sapiens, UniProt P37231); settings: cited from earlier work
T1 sequence (P37231 1-505): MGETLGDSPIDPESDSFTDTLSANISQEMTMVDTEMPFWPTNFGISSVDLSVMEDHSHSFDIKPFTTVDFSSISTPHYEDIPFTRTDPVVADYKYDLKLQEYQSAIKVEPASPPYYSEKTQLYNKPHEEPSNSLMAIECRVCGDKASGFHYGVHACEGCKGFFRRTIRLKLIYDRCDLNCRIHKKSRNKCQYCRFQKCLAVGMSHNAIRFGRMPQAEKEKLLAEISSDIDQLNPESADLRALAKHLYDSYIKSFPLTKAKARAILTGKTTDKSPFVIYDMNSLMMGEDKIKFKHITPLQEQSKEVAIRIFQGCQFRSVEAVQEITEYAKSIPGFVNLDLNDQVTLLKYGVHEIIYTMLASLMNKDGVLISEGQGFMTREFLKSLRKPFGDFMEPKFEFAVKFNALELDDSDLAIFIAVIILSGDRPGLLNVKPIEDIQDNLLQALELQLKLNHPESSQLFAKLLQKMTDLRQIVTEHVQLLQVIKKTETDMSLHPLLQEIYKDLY

[4] = test system: bleomycin-induced dermal fibrosis in DBA/2J mice; assay: Bleomycin-induced dermal fibrosis; format: in vivo
Experimental: Skin fibrosis was induced in two groups of 6-week old DBA/2J mice by local injection of bleomycin. Briefly, 100 microliter of BLM dissolved in 0.9% NaCI at a concentration of 0.5 mg/ml were administered every other day, in well defined areas (1 cm^2) of the upper back. One group of BLM-challenged mice received orally AjA 1 mg/kg/day, dissolved in seed oil. Subcutaneous injections of 100 ul 0.9% NaCI were used as controls. After 21 days, animals were killed by cervical dislocation. The injected skin was removed and processed for analysis. Each treatment group consisted of eight mice. The local ethical committee approved all animal experiments. […].
Three lesional skin samples were taken from every animal of each group and 5 μm skin sections (three for each skin sample) were stained with haematoxylin and eosin. Dermal thickness was calculated at 10× microscopic magnification by measuring the distance between the dermal—epidermal junction and the dermal—subcutaneous fat junction (micrometer) in five randomly selected fields for each skin section. Results were expressed as mean±SD. Two different examiners performed the evaluation blindly.
The collagen content of lesional skin was evaluated by colourimetric quantification of hydroxyproline on three different skin biopsies (3 mm punch) taken from every animal in each group. 15 Absorbencies were measured at 560 nm in triplicate. The results were expressed as μg of hydroxyproline per biopsy (mean±SD).
Skin sections (5 μm) were processed in order to evaluate expression of a smooth muscle actin (α-SMA) (mouse monoclonal antibody) (Santa Cruz Biotechnology, Santa Cruz, Calif., USA) After deparaffinization, skin sections were incubated with 3% bovine serum albumin for 30 minutes to block nonspecific binding, followed by incubation with 3% H2O2 for 5 minutes to block endogenous peroxidase activity. A-SMA staining was performed according to the protocol of manufacturer using M.O.M kit (Vector, UK). Staining was visualized with diaminobenzidine, using a peroxidase substrate kit (Dako, Glostrup Denmark). Cell counts were performed blindly by two different operators, at 40× magnification, in five non-contiguous microscope fields of three sections from each lesional skin sample. Results are expressed as mean±SD of positive spindle-shaped fibroblastic cells per field.

CB1 receptor = CB1 receptor (Homo sapiens, UniProt P21554); settings: cited from earlier work
15d-PGJ2 = 15d-PGJ2 supernatant levels (ELISA) of SSc fibroblasts; format: cell-based, human; settings: incubation with AjA
Experimental: as §1
(§2) The supernatant was collected and stored at −20° C. prior to and after AjA±GW9662 treatment. An EIA kit (Takara Bio, Otsu, Japan) and ELISA kit (Euroclone, Lugano, Switzerland) were used to assess the procollagen type I carboxy-terminal peptide (PIP) and TGF-β and PGJ2 supernatant levels, respectively. Results are mean±SD of five separate experiments.

[5] = test system: embryogenic fibroblastic 3T3 L1 cells; settings: process mediated by PPAR-γ; cited from earlier work
TGF-beta = TGF-beta supernatant levels (ELISA) of SSc fibroblasts; format: cell-based, human
Experimental: as §1, §2

[6] = listed as (6aR,10aR)-4-(1,1-dimethylheptyl)-Δ8-tetrahydro-cannabinol-9-carboxylic acid
[7] = AjA 1 mg/kg/day, BLM-challenged mice
[8] = AjA 1 mg/kg/day, after treatment
[9] = AjA 10 pM (so in the source), SSc fibroblasts

Sequence of CB1 receptor (P21554 whole entry): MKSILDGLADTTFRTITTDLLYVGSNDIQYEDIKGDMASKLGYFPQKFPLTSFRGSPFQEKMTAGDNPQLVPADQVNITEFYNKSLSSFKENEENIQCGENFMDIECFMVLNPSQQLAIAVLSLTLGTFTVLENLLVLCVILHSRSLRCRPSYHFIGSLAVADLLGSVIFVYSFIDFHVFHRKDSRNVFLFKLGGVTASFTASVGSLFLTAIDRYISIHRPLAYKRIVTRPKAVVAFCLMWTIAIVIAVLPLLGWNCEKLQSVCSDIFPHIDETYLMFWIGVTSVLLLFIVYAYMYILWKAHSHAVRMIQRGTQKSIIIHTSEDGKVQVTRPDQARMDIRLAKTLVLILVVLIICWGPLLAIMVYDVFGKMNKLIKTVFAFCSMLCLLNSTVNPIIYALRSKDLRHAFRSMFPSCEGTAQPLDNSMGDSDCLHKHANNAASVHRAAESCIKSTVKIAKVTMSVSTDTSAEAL
Sequence of CB2 receptor (P34972 whole entry): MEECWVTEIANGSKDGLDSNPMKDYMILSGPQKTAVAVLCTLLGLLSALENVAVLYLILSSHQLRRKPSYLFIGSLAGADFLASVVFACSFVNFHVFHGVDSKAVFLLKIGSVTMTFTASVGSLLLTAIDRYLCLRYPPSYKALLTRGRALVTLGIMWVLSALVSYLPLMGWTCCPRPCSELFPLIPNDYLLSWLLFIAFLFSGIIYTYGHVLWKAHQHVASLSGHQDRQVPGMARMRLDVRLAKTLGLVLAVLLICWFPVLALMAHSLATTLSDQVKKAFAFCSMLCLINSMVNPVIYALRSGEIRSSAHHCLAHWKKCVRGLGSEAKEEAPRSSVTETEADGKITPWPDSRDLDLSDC

O=C(Nc1ccccc1)c1cc([N+](=O)[O-])ccc1Cl [GW9662, reference compound]
reversal of AjA inhibitory effect on PIP/collagen production by PPAR-γ antagonist (SSc fibroblasts; SSc fibroblasts): completely reverted
reversal of AjA inhibitory effect on PIP/collagen production by PPAR-γ antagonist (SSc fibroblasts; SSc fibroblasts, listed as GW966): completely prevented the anti-fibrotic effects of AjA
prevention of AjA inhibitory effect on collagen production by PPAR-γ antagonist, dose dependence (SSc fibroblasts; antagonist 1-10 μM pre-incubation): prevented by GW9662 in a dose-dependent manner

CCCCCCC(C)(C)c1cc(O)c2c(c1)OC(C)(C)[C@@H]1CC=C(C(=O)O)C[C@@H]21 [AjA, (6aR,10aR)-3-(1,1-dimethylheptyl)-6a,7,10,10a-tetrahydro-1-hydroxy-6,6-dimethyl-6H-Dibenz o(b,d)pyran-9-carboxylic acid]
metabolic activity measured by the MTT assay [1]: not affected
tolerability in humans (humans; without significant psychotropic effects): well tolerated
chronic neuropathic pain in humans (humans): can reduce chronic neuropathic pain
lung fibrosis (histology) ([2]; AjA 1 and 5 mg/kg qd x 21 d, bleomycin): fibrosis was significantly inhibited
parenchymal infiltration of leukocytes in lung ([2]; AjA qd x 21 d, more evident in the 5 mg/kg group): parenchymal infiltration of leukocytes was reduced
PPAR-γ protein expression in SSc fibroblasts (PPAR-γ): completely restored the expression of PPAR-γ
affinity for CB2 receptor (CB2 receptor): weak ligand
affinity for CB2 receptor (CB2 receptor; [6]): high affinity
binding to and activation of PPAR-γ [3]: binds to and activates
dermal thickness of lesional skin ([4]; AjA 1 mg/kg/day orally, 21 days, BLM-challenged DBA/2J mice): reduced skin thickness nearly to control levels; also recorded: dermal thickness was equal to control group
hydroxyproline content of lesional skin (collagen deposition) ([4]; AjA 1 mg/kg/day, 21 days, BLM-challenged mice): completely abrogated the collagen deposition induced by BLM; also recorded: dermal thickness was equal to control group
alpha-SMA positive cells, immunohistochemistry [4, 7]: strong downregulation of alpha-SMA positive cells
leukocyte infiltration, ECM accumulation and fat layer replacement in lesional skin (histology) [4, 7]: the subcutaneous leukocyte infiltration, the accumulation of ECM and the fat layer replacement were reduced; also recorded: strongly reduced the leukocyte infiltration
reduction of number of myofibroblasts (α-SMA positive spindle-shaped fibroblastic cells) in lesional skin [4, 7]: up to 26%
body weight, BLM/AjA group vs BLM group [4, 8]: did not differ in terms of body weight
signs of toxicity (ruffled fur, reduced activity) [4, 8]: no other signs of toxicity
affinity for CB1 receptor (CB1 receptor): weak ligand
affinity for CB1 receptor (CB1 receptor; [6]): high affinity
levels of 15d-PGJ2 in supernatants of SSc fibroblasts (15d-PGJ2): strongly increased the levels of 15d-PGJ2 in dose-dependent manner
differentiation of 3T3 L1 cells into adipocytes [5]: stimulates the differentiation of embryogenic fibroblastic 3T3 L1 cells into adipocytes
supernatant PIP levels, dose dependence (SSc fibroblasts; AjA 0.1, 1, 5 and 10 μM, 24 hours, SSc fibroblasts): dose-dependently decreased the levels of PIP; also recorded: dose-dependent reduction of supernatant PIP levels
inhibition at 10 µM (SSc fibroblasts; Homo sapiens, Fibroblast, AjA 10 μM, 24 hours, SSc fibroblasts supernatant, read-out: mean PIP reduction (maximal inhibition)): ≤ 60%
duration of significant TGF-beta downregulation (TGF-beta; [9]): ≤ 24 h
time of maximum TGF-beta inhibition (TGF-beta; [9]): 2 h
supernatant TGF-beta (TGF-beta; AjA 5 and 10 microM, SSc fibroblasts): significant reduction of supernatant TGF-beta
time of maximum TGF-beta suppression (TGF-beta; SSc fibroblasts, AjA): 2 h
reduction in TGF-beta concentrations in supernatants from SSc fibroblasts (TGF-beta; incubation with AjA, dose-dependent): up to 50%
